Patent US7655664B2, “Hydantoin derivatives as metalloproteinase inhibitors” (AstraZeneca AB, priority 2004, dated 2010)

Experiments:
Format in all cases: biochemical
[1] = target: T1, Recombinant human MMP12 catalytic domain (Homo sapiens, UniProt P39900); test: MMP12 isolated enzyme assay (fluorogenic substrate); conditions: 60 min, room temperature, read-out: hMMP12 IC50
T1 construct: Recombinant human MMP12 catalytic domain; made in house
Description: Recombinant human MMP12 catalytic domain may be expressed and purified as described by Parkar A. A. et al, (2000), Protein Expression and Purification, 20, 152. The purified enzyme can be used to monitor inhibitors of activity as follows: MMP12 (50 ng/ml final concentration) is incubated for 60 minutes at room temperature with the synthetic substrate Mca-Pro-Cha-Gly-Nva-His-Ala-Dpa-NH2 (10 μM) in assay buffer (0.1M “Tris-HCl” (trade mark) buffer, pH 7.3 containing 0.1M NaCl, 20 mM CaCl2, 0.020 mM ZnCl and 0.05% (w/v) “Brij 35” (trade mark) detergent) in the presence (10 concentrations) or absence of inhibitors. Activity is determined by measuring the fluorescence at λex 320 nm and λem 405 nm. Percent inhibition is calculated as follows: % Inhibition is equal to the [Fluorescenceplus inhibitor−Fluorescencebackground] divided by the [Fluorescenceminus inhibitor−Fluorescencebackground]. MMP8

[2] = target: T2, Recombinant human MMP9 catalytic domain (Homo sapiens, UniProt P14780); test: MMP9 isolated enzyme assay (fluorogenic substrate); conditions: 30 min, RT, read-out: hMMP9 IC50
T2 sequence (P14780 with tags, fused parts or gaps DEL216-390 limits assumed): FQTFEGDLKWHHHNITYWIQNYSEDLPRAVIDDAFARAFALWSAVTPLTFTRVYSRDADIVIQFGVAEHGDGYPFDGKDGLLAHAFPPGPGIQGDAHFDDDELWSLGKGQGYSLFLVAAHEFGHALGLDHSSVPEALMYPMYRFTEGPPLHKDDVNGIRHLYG
Description: Recombinant human MMP9 catalytic domain was expressed and then purified by Zn chelate column chromatography followed by hydroxamate affinity column chromatography. The enzyme can be used to monitor inhibitors of activity as follows: MMP9 (5 ng/ml final concentration) is incubated for 30 minutes at RT with the synthetic substrate Mca-Pro-Cha-Gly-Nva-His-Ala-Dpa-NH2 (5 μM) in assay buffer (0.1M “Tris-HCl” (trade mark) buffer, pH 7.3 containing 0.1M NaCl, 20 mM CaCl2, 0.020 mM ZnCl and 0.05% (w/v) “Brij 35” (trade mark) detergent) in the presence (10 concentrations) or absence of inhibitors. Activity is determined by measuring the fluorescence at […]. Percent inhibition is calculated as follows: % Inhibition is equal to the [Fluorescenceplus inhibitor−Fluorescencebackground] divided by the [Fluorescenceminus inhibitor−Fluorescencebackground]. MMP14

[3] = target: T3, hMMP8 (APMA-activated pro-MMP8) (Homo sapiens, UniProt P22894); test: MMP8 isolated enzyme assay (fluorogenic substrate); conditions: 90 min, 35° C.
T3 construct: purchased Calbiochem
Description: Purified pro-MMP8 is purchased from Calbiochem. The enzyme (at 10 μg/ml) is activated by p-amino-phenyl-mercuric acetate (APMA) at 1 mM for 2.5 h, 35° C. The activated enzyme can be used to monitor inhibitors of activity as follows: MMP8 (200 ng/ml final concentration) is incubated for 90 minutes at 35° C. (80% H2O) with the synthetic substrate Mca-Pro-Cha-Gly-Nva-His-Ala-Dpa-NH2 (12.5 μM) in assay buffer (0.1 M “Tris-HCl” (trade mark) buffer, pH 7.5 containing 0.1M NaCl, 30 mM CaCl2, 0.040 mM ZnCl and 0.05% (w/v) “Brij 35” (trade mark) detergent) in the presence (10 concentrations) or absence of inhibitors. Activity is determined by measuring the fluorescence at λex 320 nm and λem 405 nm. Percent inhibition is calculated as follows: % Inhibition is equal to the [Fluorescenceplus inhibitor−Fluorescencebackground] divided by the [Fluorescenceminus inhibitor−Fluorescencebackground]. MMP9

[4] = target: T4, Recombinant human MMP14 catalytic domain (Homo sapiens, UniProt P50281); test: MMP14 isolated enzyme assay (fluorogenic substrate); conditions: 60 min, room temperature, read-out: hMMP14 IC50
T4 construct: Recombinant human MMP14 catalytic domain; made in house
Description: Recombinant human MMP14 catalytic domain may be expressed and purified as described by Parkar A. A. et al, (2000), Protein Expression and Purification, 20, 152. The purified enzyme can be used to monitor inhibitors of activity as follows: MMP14 (10 ng/ml final concentration) is incubated for 60 minutes at room temperature with the synthetic substrate Mca-Pro-Cha-Gly-Nva-His-Ala-Dpa-NH2 (10 μM) in assay buffer (0.1M “Tris-HCl” (trade mark) buffer, pH 7.5 containing 0.1M NaCl, 20 mM CaCl2, 0.020 mM ZnCl and 0.05% (w/v) “Brij 35” (trade mark) detergent) in the presence (5 concentrations) or absence of inhibitors. Activity is determined by measuring the fluorescence at λex 320 nm and λem 405 nm. Percent inhibition is calculated as follows: % Inhibition is equal to the [Fluorescenceplus inhibitor−Fluorescencebackground] divided by the [Fluorescenceminus inhibitor−Fluorescencebackground].

[5] = target: T5, Recombinant human MMP19 catalytic domain (Homo sapiens, UniProt Q99542); test: MMP19 isolated enzyme assay (fluorogenic substrate); conditions: 120 min, 35° C., read-out: hMMP19 IC50
T5 construct: Recombinant human MMP19 catalytic domain; made in house
Description: Recombinant human MMP19 catalytic domain may be expressed and purified as described by Parkar A. A. et al, (2000), Protein Expression and Purification, 20:152. The purified enzyme can be used to monitor inhibitors of activity as follows: MMP19 (40 ng/ml final concentration) is incubated for 120 minutes at 35° C. with the synthetic substrate Mca-Pro-Leu-Ala-Nva-Dpa-Ala-Arg-NH2 (5 μM) in assay buffer (0.1M “Tris-HCl” (trade mark) buffer, pH 7.3 containing 0.1M NaCl, 20 mM CaCl2, […] ZnCl and 0.05% (w/v) “Brij 35” (trade mark) detergent) in the presence (5 concentrations) or absence of inhibitors. Activity is determined by measuring the fluorescence at λex 320 nm and λem 405 nm. Percent inhibition is calculated as follows: % Inhibition is equal to the [Fluorescenceplus inhibitor−Fluorescencebackground] divided by the [Fluorescenceminus inhibitor−Fluorescencebackground].

T1 sequence (P39900 106-263 limits assumed): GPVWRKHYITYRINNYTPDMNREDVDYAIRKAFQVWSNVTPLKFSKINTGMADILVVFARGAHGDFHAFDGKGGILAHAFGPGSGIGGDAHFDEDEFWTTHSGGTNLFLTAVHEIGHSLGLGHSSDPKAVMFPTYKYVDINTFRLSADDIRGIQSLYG
T3 sequence (P22894 101-467): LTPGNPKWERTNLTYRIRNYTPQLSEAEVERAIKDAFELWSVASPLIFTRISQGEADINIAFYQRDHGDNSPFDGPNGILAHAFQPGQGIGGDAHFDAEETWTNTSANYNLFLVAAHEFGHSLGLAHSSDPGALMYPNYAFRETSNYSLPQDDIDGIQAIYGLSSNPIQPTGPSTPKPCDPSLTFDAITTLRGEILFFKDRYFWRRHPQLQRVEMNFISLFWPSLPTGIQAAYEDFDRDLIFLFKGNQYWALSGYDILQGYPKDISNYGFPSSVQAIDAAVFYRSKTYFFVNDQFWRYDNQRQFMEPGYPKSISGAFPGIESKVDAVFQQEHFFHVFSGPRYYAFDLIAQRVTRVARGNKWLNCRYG
T5 sequence (Q99542 98-256 limits assumed): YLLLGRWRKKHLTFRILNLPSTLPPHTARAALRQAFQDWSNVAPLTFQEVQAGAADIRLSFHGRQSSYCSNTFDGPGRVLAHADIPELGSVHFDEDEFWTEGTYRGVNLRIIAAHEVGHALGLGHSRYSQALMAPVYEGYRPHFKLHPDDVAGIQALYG

SMILES	IC50 [1] [µM]	IC50 [2] [µM]	IC50 [3] [µM]	IC50 [4] [µM]	IC50 [5] [µM]
CC[C@]1(CS(=O)(=O)N2CCc3cc(-c4cnc(C5CC5)nc4)ccc3C2)NC(=O)NC1=O [Example 5, (5S)-5-({[6-(2-Cyclopropylpyrimidin-5-yl)-3,4-dihydroisoquinolin-2(1H)-yl]sulfonyl}methyl)-5-ethylimidazolidine-2,4-dione]	0.0069	0.0038	1.31	8.81	3.76
C[C@]1(CS(=O)(=O)N2CCc3cc(-c4ccc(C5CC5)nc4)ncc3C2)NC(=O)NC1=O [Example 2, (5S)-5-({[6-(6-Cyclopropylpyridin-3-yl)-3,4-dihydro-2,7-naphthyridin-2(1H)-yl]sulfonyl}methyl)-5-methylimidazolidine-2,4-dione]	0.0266	0.0215	2.47	> 10	
C[C@]1(CS(=O)(=O)N2CCc3cc(-c4cnc(C5CC5)nc4)ccc3C2)NC(=O)NC1=O [Example 1, (5S)-5-({[6-(2-Cyclopropylpyrimidin-5-yl)-3,4-dihydroisoquinolin-2(1H)-yl]sulfonyl}methyl)-5-methylimidazolidine-2,4-dione]	0.00878	0.0101	3.05	> 10	> 10
